The target in the experiment is T1, Lysozyme from chicken egg white (Gallus gallus, UniProt P00698).
T1 construct: gene LYZ
The experiment can be described thus: isothermal titration calorimetry (VP-ITC). Particulars: read-out: K. The class given is binding.

Structures are written as SMILES. Structures can show the parent of a compound that is named as a salt.

T1 sequence (P00698 19-147): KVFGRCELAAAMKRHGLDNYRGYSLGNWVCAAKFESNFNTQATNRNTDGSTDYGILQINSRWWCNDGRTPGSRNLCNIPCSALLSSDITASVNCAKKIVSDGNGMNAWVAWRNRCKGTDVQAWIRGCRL

For `O=S(=O)(O)CCCSc1nc2ccccc2s1` [BTS, 3-(2-Benzohiazolylthio)-1-propane-sulfonic acid sodium salt], the Kd was 2.62 µM.
